Each structure is given as a SMILES string. Where two headings read alike, the source gives them in different places.

This test concerns adjuvant-induced arthritis in rats. The test can be described thus: Established adjuvant-induced arthritis in rats. The format is in vivo, rat (Charles River Lewis male rats). The following applies: for ED50: Rattus norvegicus, 24 h, read-out: Adjuvant Arthritis ED50; for % reduction at the indicated dose (paw volume, Adjuvant Arthritis): 9 mg/kg.
The mark [1] stands for this setting: oral by gavage, 7 daily doses, ED50% decrease from control paw volume (uninjected left hind paw), read one day after last dose.

For the molecule `O=S(=O)(c1nc2c([nH]1)COc1cc(F)ccc1-2)C(F)(F)C(F)F` [Example 6], the ED50 under setting [1] was over 9 mg/kg. Also, the “% reduction at the indicated dose (paw volume, Adjuvant Arthritis)” value (oral by gavage, 7 daily doses) is given as 22%.
Consider `O=S(=O)(c1nc2c([nH]1)COc1cc(Cl)c(Cl)cc1-2)C(F)(F)C(F)F` [Example 2, 7,8-Dichloro-3,4-dihydro(or 1,4-dihydro)-2-[(1,1,2,2-tetrafluoroethyl)sulfonyl]-[1]benzopyrano[3,4-d]imidazole], for which the ED50 under setting [1] was found to be 3.1 mg/kg.
As to `FC(F)C(F)(F)Sc1nc2c([nH]1)COc1cc(Cl)c(Cl)cc1-2` [Example 1, 7,8-Dichloro-3,4-dihydro(or 1,4-dihydro)-2-[(1,1,2,2-tetrafluoroethyl)-thio]-[1]benzopyrano[3,4-d]imidazole], under setting [1], the ED50 came out at 8.2 mg/kg.
Take `FC(F)C(F)(F)Sc1nc2c([nH]1)COc1ccc(Cl)cc1-2` [Example 4]: the 50% effective dose (ED50) under setting [1] was over 9 mg/kg. The “% reduction at the indicated dose (paw volume, Adjuvant Arthritis)” value (oral by gavage, 7 daily doses) is on record as 30%.
As to `CC(C)Cc1ccc(C(C)C(=O)O)cc1` (centres unmarked) [Ibuprofen, ibuprofen, reference compound], the ED50 under setting [1] came out at 100 mg/kg.
As to `COc1ccc2c(c1)c(CC(=O)O)c(C)n2C(=O)c1ccc(Cl)cc1` [Indomethacin, indomethacin, reference compound], the median effective dose (ED50) (po) came out at 0.3 mg/kg.
Consider `Fc1ccc2c(c1)OCc1[nH]c(SC(F)(F)C(F)F)nc1-2` [Example 5], for which, under setting [1], the ED50 turned out to be 50 mg/kg.
As to `CC(=O)Oc1ccccc1C(=O)O` [Aspirin, aspirin, reference compound], for the setting “po”, the ED50 came out at 305 mg/kg.
Regarding `CCCCC1C(=O)N(c2ccccc2)N(c2ccccc2)C1=O` [Phenylbutazone, phenylbutazone, reference compound], the ED50 under setting [1] was found to be 10 mg/kg.

For orientation: ED50 means the midpoint of the dose-response relation.
